The values that follow come from the NIST ThermoML archive (doi:10.1016/j.jct.2016.10.040).

SMILES strings stand for the structures. ± gives the expanded uncertainty stated by the source.

Data set [1] in a line: Molar enthalpy of transition or fusion. The settings on record: Crystal; DSC.
For data set [2] the following is noted: Crystal; DTA.

In the case of `O=Cc1cccc([N+](=O)[O-])c1` [3-nitrobenzaldehyde], the “Molar enthalpy of transition or fusion” value in data set [1] is 4.76 ± 0.217 kcal/mol. The Normal melting temperature in data set [2] came out at 55.07 ± 1.1 °C.
